# Data taken from patent US9017692B2, “Antimicrobial agent, bacterial strain, biosynthesis, and methods of use” (priority 2011, dated 2015).
# How the values were obtained:
# [1] = tested on: L. monocytogenes OSY-8578; assay: Spot-on-lawn antimicrobial activity; assay type: cell-based, Listeria monocytogenes; conditions: TSBYE
# Procedure: (§1) Spot-on-lawn method [He, Z., et al., Appl. Environ. Microbiol., (2007) 73:168-178] was used for the bioassay of antimicrobial activity. Bacterial indicators were incubated at 37° C. for 24 h, except Pseudomonas putida, Clostridium difficile and methycillin resistant Staphylococcus aureus which were incubated for 48 h (Table 1). The indicator overlay was prepared by pouring 10 ml soft agar (seeded with 10 μL indicator culture) onto tryptose agar as basal medium in a petri dish. Purified antimicrobials were two-fold serially diluted and aliquots (10 μL each) were spotted onto the soft agar. The plates were incubated overnight and inspected for the presence of growth inhibition zones. Antimicrobial activity was expressed in arbitrary units (AU)/mL; this value is the reciprocal of the highest dilution displaying a zone of inhibition corresponding to 1 mL of the non-diluted antimicrobial preparation.
# (§2) Purified paenibacterin was used for the antimicrobial spectrum test. Microorganisms tested for sensitivity to this compound included pathogenic (e.g., Salmonella Typhimurium, Escherichia coli O157:H7, Listeria monocytogenes, and Staphylococcus aureus) and non-pathogenic (e.g., Escherichia coli K-12, Pseudomonas putida, and Enterococcus faecalis) bacteria (Table 1).
# [2] = tested on: L. innocua ATCC 33090; assay: Spot-on-lawn antimicrobial activity; assay type: cell-based, Listeria innocua; conditions: TSBYE
# Procedure: as §1, §2
# [3] = tested on: Escherichia coli O157:H7; assay: Antimicrobial spectrum test; assay type: cell-based; conditions: gram-negative pathogens such as Escherichia coli O157:H7
# Procedure: as §1, §2
# [4] = tested on: ABA.1570; assay: MIC, CLSI broth microdilution, Gram-negative clinical isolates; assay type: cell-based, Acinetobacter baumannii
# Procedure: (§3) Plates were incubated at 35° C. for 24 h.
# (§4) The activity of paenibacterin was also tested against clinical isolates of the following Gram-negative bacterial strains: four strains of the species Pseudomonas aeruginosa (PAE), three strains of the species Acinetobacter baumannii (ABA), two strains of the species Escherichia coli (ECO), and four strains of the species Klebsiella pneumoniae (KPN). Particularly, the strains of Gram-negative bacteria included polymyxin B-resistant (PMB-R) and polymyxin B-sensitive (PMB-S) strains of each above listed species. The MICs were determined using the above described CLSI broth microdilution method, in which the method was performed with both non-binding surface coated (NBS) and polystyrene (PS) 96-well plates (Tables 11 and 12, respectively). The MICs were generally lower in the NBS 96-well plates as compared to the PS 96-well plates.
# [5] = tested on: ABA.2232; assay: as above; assay type: cell-based, Acinetobacter baumannii
# Procedure: as §3, §4
# [6] = tested on: ABA.2315; assay: as above; assay type: cell-based, Acinetobacter baumannii
# Procedure: as §3, §4
# [7] = tested on: ATCC 25922 ECO.35; assay: as above; assay type: cell-based, Escherichia coli
# Procedure: as §3, §4
# [8] = tested on: ECO.2276; assay: as above; assay type: cell-based, Escherichia coli
# Procedure: as §3, §4
# [9] = tested on: KPN.2317; assay: as above; assay type: cell-based, Klebsiella pneumoniae
# Procedure: as §3, §4
# [10] = tested on: KPN.674; assay: as above; assay type: cell-based, Klebsiella pneumoniae
# Procedure: as §3, §4
# [11] = tested on: PMB-R, KPN.2463; assay: as above; assay type: cell-based, Klebsiella pneumoniae
# Procedure: as §3, §4
# [12] = tested on: PMB-S, KPN.2461; assay: as above; assay type: cell-based, Klebsiella pneumoniae
# Procedure: as §3, §4
substance,measurement,setting,value
paenibacterin,Antimicrobial activity (AU/ml),[1],1600 AU/ml
same,Antimicrobial activity (AU/ml),[2],1600 AU/ml
same,Antimicrobial activity (in words),[3],good activity
same,Minimum inhibitory concentration (MIC),[4]; NBS 96-well plates,2 µg/mL
same,Minimum inhibitory concentration (MIC),[4]; PS 96-well plates,32 µg/mL
same,Minimum inhibitory concentration (MIC),[5]; NBS 96-well plates,2 µg/mL
same,Minimum inhibitory concentration (MIC),[5]; PS 96-well plates,32 µg/mL
same,Minimum inhibitory concentration (MIC),[6]; NBS 96-well plates,2 µg/mL
same,Minimum inhibitory concentration (MIC),[6]; PS 96-well plates,32 µg/mL
same,Minimum inhibitory concentration (MIC),"[7]; ECO.35 (ATCC 25922), NBS 96-well plates",8 µg/mL
same,Minimum inhibitory concentration (MIC),"[7]; ECO.35, PS 96-well plates",16 µg/mL
same,Minimum inhibitory concentration (MIC),[8]; NBS 96-well plates,8 µg/mL
same,Minimum inhibitory concentration (MIC),[8]; PS 96-well plates,16 µg/mL
same,Minimum inhibitory concentration (MIC),[9]; NBS 96-well plates,64 µg/mL
same,Minimum inhibitory concentration (MIC),[9]; PS 96-well plates,64 µg/mL
same,Minimum inhibitory concentration (MIC),[10]; NBS 96-well plates,8 µg/mL
same,Minimum inhibitory concentration (MIC),[10]; PS 96-well plates,32 µg/mL
same,Minimum inhibitory concentration (MIC),"[11]; KPN.2463 (PMB-R), NBS 96-well plates",8 µg/mL
same,Minimum inhibitory concentration (MIC),"[11]; KPN.2463, PS 96-well plates",32 µg/mL
same,Minimum inhibitory concentration (MIC),"[12]; KPN.2461 (PMB-S), NBS 96-well plates",4 µg/mL
same,Minimum inhibitory concentration (MIC),"[12]; KPN.2461, PS 96-well plates",32 µg/mL
